From the NIST ThermoML archive (doi:10.1021/je100151b)

Key:
[1] = mn = molality of the nth substance listed, in mol/kg; conditions: 101 kPa, Liquid, m1 = 0.25
[2] = refractive index (Na D-line) (dimensionless); mn = molality of the nth substance listed, in mol/kg; conditions: 101 kPa, Liquid, Standard Abbe refractometry, m1 = 0.25

[Cl][Fe][Cl] [ferrous chloride] + O
Conditions	mass density, [1] [kg/m3]	refractive index, [2]
288.15 K	998.9	1.3375
293.15 K	998.2	1.3468
298.15 K	997	1.3559
303.15 K	996	1.3661
308.15 K	995	1.3768
313.15 K	994.5	1.3874
318.15 K	993.8	1.398
